Data reported in PubChem BioAssay AID493225 (Broad Institute, 2011).
“And” between values parts separate entries of the source, which are not always exact repeats. Equal values may be shown once. The source made the active and inactive calls.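 How the source made its calls: active means fitted curve reaching 40% activation, where positive control equals 100, at or below the top valid dose; inconclusive means flat curve between 30 and 70% activation, or a poor fit; inactive means the rest, including activity in the opposite direction.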

What follows are compounds tested against Hypoxia-inducible factor 1-alpha (Homo sapiens) (UniProt Q16665) (assay: HIF1A nuclear translocation activators in U2OS – imaging, U2OS GFP-HIF1alpha, high content, dry powder, set 2, orthogonal assay for HIF activator project, dose response (AID 493225)). Conditions: U2OS GFP-HIF1alpha nuclear intensity imaging.
Sequence of Hypoxia-inducible factor 1-alpha (Homo sapiens) (Q16665 whole entry, looked up): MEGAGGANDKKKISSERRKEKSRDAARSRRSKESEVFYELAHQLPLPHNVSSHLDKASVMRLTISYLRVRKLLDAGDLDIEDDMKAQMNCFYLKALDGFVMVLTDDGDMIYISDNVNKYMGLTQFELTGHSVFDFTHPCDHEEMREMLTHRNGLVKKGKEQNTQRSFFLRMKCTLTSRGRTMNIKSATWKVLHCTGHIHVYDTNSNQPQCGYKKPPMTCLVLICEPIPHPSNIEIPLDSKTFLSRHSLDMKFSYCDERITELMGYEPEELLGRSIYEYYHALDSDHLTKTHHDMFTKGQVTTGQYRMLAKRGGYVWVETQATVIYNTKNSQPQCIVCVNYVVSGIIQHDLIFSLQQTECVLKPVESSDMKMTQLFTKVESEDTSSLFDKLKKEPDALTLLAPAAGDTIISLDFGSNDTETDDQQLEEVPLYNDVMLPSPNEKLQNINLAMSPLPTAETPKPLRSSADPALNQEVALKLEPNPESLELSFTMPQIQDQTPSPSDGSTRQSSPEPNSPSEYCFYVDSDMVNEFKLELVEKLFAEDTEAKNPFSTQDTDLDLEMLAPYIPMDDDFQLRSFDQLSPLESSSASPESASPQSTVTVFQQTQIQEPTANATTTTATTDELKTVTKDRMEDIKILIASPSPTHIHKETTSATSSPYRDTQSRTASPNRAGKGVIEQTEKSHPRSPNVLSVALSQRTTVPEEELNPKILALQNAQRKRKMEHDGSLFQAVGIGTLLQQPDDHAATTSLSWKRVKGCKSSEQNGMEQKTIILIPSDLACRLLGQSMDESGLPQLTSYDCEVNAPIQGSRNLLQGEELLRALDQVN

| SMILES | AC40 |
| --- | --- |
| O=C(NCCCn1ccnc1)c1cc(-c2ccccc2)on1 | 6.13 µM |
| Cc1ccc(CNc2nc(-c3ccccn3)nnc2-c2ccccc2)cc1C | 0.736 µM |
| O=C(Nc1nc2ccccc2s1)c1cc(-c2ccccc2)on1 | 34.9 µM |
| COc1ccc(CNc2nc(-c3ccccn3)nnc2-c2ccccc2)cc1 | 1.09 µM |
| OCC1CCN(c2nc(-c3ccccn3)nnc2-c2ccccc2)CC1 | 11 µM |
| CC(C)(C)CCNc1nc(-c2ccccn2)nnc1-c1ccccc1 | 0.357 µM and 0.401 µM |
| c1ccc(-c2nnc(-c3ccccn3)nc2N2CCN(c3ccncc3)CC2)cc1 | 3.16 µM |
| Cc1ccc(Nc2nc(-c3ccccn3)nnc2-c2ccccc2)cn1 | 6.61 µM |
| CC(C)(C)c1ccc(CNc2nc(-c3ccccn3)nnc2-c2ccccc2)cc1 | 0.249 µM |
| c1ccc(-c2nnc(-c3ccccn3)nc2N2CCC(c3ccccc3)C2)cc1 (configuration not stated) | 0.689 µM |
| c1ccc(-c2nnc(-c3ccccn3)nc2NCCCN2CCOCC2)cc1 | 7.52 µM |
| OCC1CCN(Cc2ccc(O)c3ncccc23)CC1 | 3.69 µM |
| C[C@@H](Nc1nc(-c2ccccn2)nnc1-c1ccccc1)C1CCCCC1 | 0.456 µM |
| O=C(NCCCO)c1cc(-c2ccccc2)on1 | 6.49 µM |
| Cn1c(-c2ccccc2)cnc1Nc1nc(-c2ccccn2)nnc1-c1ccccc1 | > 13.5 µM (inactive) |
| OCCCNc1nc(-c2ccccn2)nnc1-c1ccccc1 | 10.8 µM |
| c1ccc(-c2cnc(Nc3nc(-c4ccccn4)nnc3-c3ccccc3)s2)cc1 | 19.7 µM |
| O=C(NCCN1CCOCC1)c1cc(-c2ccccc2)on1 | 20.6 µM |
| O=C(NC1CCc2ccccc2C1)c1cc(-c2ccccc2)on1 (configuration not stated) | > 38 µM (inactive) |
| c1ccc(-c2nnc(-c3ccccn3)nc2N2CCC(C3CCCCC3)C2)cc1 (configuration not stated) | 0.265 µM |
| c1ccc(-c2nnc(-c3ccccn3)nc2NCc2cccnc2)cc1 | 4.19 µM |
| COc1ccccc1N1CCN(Cc2ccc(O)c3ncccc23)CC1 | 14.8 µM |

| SMILES | AC40 |
| --- | --- |
| c1ccc(-c2nnc(-c3ccccn3)nc2NCC2CC2)cc1 | 2.07 µM |
| C[C@@H](Nc1nc(-c2ccccn2)nnc1-c1ccccc1)c1ccccc1 | 1.5 µM |
| c1ccc(CNc2nc(-c3ccccn3)nnc2-c2ccccc2)cc1 | 1.93 µM |
| O=C(NCC1CC1)c1cc(-c2ccccc2)on1 | 15.4 µM |
| CCCCNC(=O)c1cc(-c2ccccc2)on1 | 7.07 µM |
| c1ccc(-c2nnc(Nc3nc(-c4ccccn4)nnc3-c3ccccc3)s2)cc1 | 13.7 µM |
| Oc1ccc(CNC2CCc3ccccc32)c2cccnc12 (configuration not stated) | 13.5 µM |
| c1ccc(-c2csc(Nc3nc(-c4ccccn4)nnc3-c3ccccc3)n2)cc1 | 1.05 µM |
| c1ccc(-c2nnc(-c3ccccn3)nc2NCC2CCCCC2)cc1 | 0.801 µM |
| Cc1cccc(CNc2nc(-c3ccccn3)nnc2-c2ccccc2)c1 | 1.31 µM |
| C[C@H](Nc1nc(-c2ccccn2)nnc1-c1ccccc1)C1CCCCC1 | 0.635 µM |
| O=C(NCCN1CCCCC1)c1cc(-c2ccccc2)on1 | > 38 µM (inactive) |
| c1ccc(-c2nnc(-c3ccccn3)nc2Nc2cnc3ccccc3n2)cc1 | 1.94 µM |
| O=C(NC1Cc2ccccc2C1)c1cc(-c2ccccc2)on1 | > 38 µM (inactive) |
| Cc1ccc(NC(=O)c2cc(-c3ccccc3)on2)cn1 | > 38 µM (inactive) |
| c1ccc(-c2nnc(-c3ccccn3)nc2NCCN2CCOCC2)cc1 | 8.15 µM |
| Oc1ccc(CNC2Cc3ccccc3C2)c2cccnc12 | 5.59 µM |
| COc1cccc(CNc2nc(-c3ccccn3)nnc2-c2ccccc2)c1 | 1.57 µM |
| c1ccc(-c2cccc(CNc3nc(-c4ccccn4)nnc3-c3ccccc3)c2)cc1 | 0.359 µM |
| CC(C)(C)CCNC(=O)c1cc(-c2ccccc2)on1 | > 38 µM (inactive) |
| c1ccc(CCNc2nc(-c3ccccn3)nnc2-c2ccccc2)cc1 | 4.89 µM |
| C=CCNc1nc(-c2ccccn2)nnc1-c1ccccc1 | 4.73 µM |

| SMILES | AC40 |
| --- | --- |
| c1ccc(-c2nnc(-c3ccccn3)nc2NCc2ccccn2)cc1 | 5.02 µM |
| CN1CCN(c2nc(-c3ccccn3)nnc2-c2ccccc2)CC1 | 5.53 µM |
| Oc1ccc(CN2CCC3CCCCC3C2)c2cccnc12 (configuration not stated) | 5.14 µM |
| c1ccc(-c2ccc(CNc3nc(-c4ccccn4)nnc3-c3ccccc3)cc2)cc1 | 0.164 µM |
| CN(C)c1nc(-c2ccccn2)nnc1-c1ccccc1 | 10.4 µM |
| Oc1ccc(CN2CCc3ccccc3C2)c2cccnc12 | 4.51 µM and 18.1 µM |
| c1ccc(-c2nnc(-c3ccccn3)nc2NCCc2ccccn2)cc1 | 6.24 µM |
| N#CC1(c2ccccc2)CCN(Cc2ccc(O)c3ncccc23)CC1 | 19.8 µM |
| Cc1ccc(CNc2nc(-c3ccccn3)nnc2-c2ccccc2)cc1 | 0.727 µM |
| c1ccc(-c2nnc(-c3ccccn3)nc2N2CCC(N3CCOCC3)CC2)cc1 | 5.88 µM |
| O=C(NCCCN1CCOCC1)c1cc(-c2ccccc2)on1 | 17.7 µM |
| Clc1cccc(CNc2nc(-c3ccccn3)nnc2-c2ccccc2)c1 | 0.74 µM |
| Cc1cccc(Nc2nc(-c3ccccn3)nnc2-c2ccccc2)n1 | 2.72 µM |
| c1ccc(-c2nnc(-c3ccccn3)nc2Nc2nc3ccccc3s2)cc1 | 0.491 µM |
| Oc1ccc(CN2CCC(Cc3ccccc3)CC2)c2cccnc12 | 8.98 µM |
| CC1CN(Cc2ccc(O)c3ncccc23)CC(C)O1 (configuration not stated) | 20.8 µM |
| Cc1ccccc1CNc1nc(-c2ccccn2)nnc1-c1ccccc1 | 0.628 µM |
| c1ccc(-c2nnc(-c3ccccn3)nc2NCC2CCOCC2)cc1 | 7.28 µM |
| CC(C)(C)OC(=O)N1CCN(Cc2ccc(O)c3ncccc23)CC1 | 23.8 µM |
| O=C(NCCCCO)c1cc(-c2ccccc2)on1 | 1.89 µM |
| CC(Nc1nc(-c2ccccn2)nnc1-c1ccccc1)c1ccccc1 (configuration not stated) | 1.1 µM |

Same assay, conditions: U2OS GFP-HIF1alpha nuclear intensity imaging; at 38 µM (top of the series)

| SMILES | activation |
| --- | --- |
| O=C(Nc1cnc2ccccc2c1)c1cc(-c2ccccc2)on1 | -3.02% (inactive) |
| O=C(Nc1nnc(-c2ccccc2)s1)c1cc(-c2ccccc2)on1 | -3.81% (inactive) |
| O=C(Nc1ncc(-c2ccccc2)o1)c1cc(-c2ccccc2)on1 | -4.43% (inactive) |
| CN(C)CCNC(=O)c1cc(-c2ccccc2)on1 | 9.39% (inactive) |
| O=C(c1cc(-c2ccccc2)on1)N1CCN(c2ccncc2)CC1 | -1.92% (inactive) |
| Cc1cccc(NC(=O)c2cc(-c3ccccc3)on2)n1 | 0.577% (inactive) |
| Cn1c(-c2ccccc2)cnc1NC(=O)c1cc(-c2ccccc2)on1 | 12.3% (inactive) |
| O=C(Nc1ccc2ccccc2n1)c1cc(-c2ccccc2)on1 | -3.66% (inactive) |
| O=C(Nc1nc(-c2ccccc2)cs1)c1cc(-c2ccccc2)on1 | 3.11% (inactive) |
| Cc1ccc(CNC(=O)c2cc(-c3ccccc3)on2)cc1 | 7.41% (inactive) |
| O=C(c1cc(-c2ccccc2)on1)N1CCC(N2CCCC2)CC1 | 3.26% (inactive) |
| Cc1cccc(CNC(=O)c2cc(-c3ccccc3)on2)c1 | 9.64% (inactive) |
| CN1CCN(C(=O)c2cc(-c3ccccc3)on2)CC1 | -2.52% (inactive) |
| O=C(c1cc(-c2ccccc2)on1)N1CCC(N2CCOCC2)CC1 | -1.88% (inactive) |
| O=C(Nc1cn2ccccc2n1)c1cc(-c2ccccc2)on1 | 9.51% (inactive) |
| Cn1c(NC(=O)c2cc(-c3ccccc3)on2)nc2ccccc21 | -4.79% (inactive) |
| O=C(c1cc(-c2ccccc2)on1)N1CCC(CO)CC1 | -3.23% (inactive) |
| O=C(c1cc(-c2ccccc2)on1)N1CCc2cccnc21 | 3.77% (inactive) |
| O=C(NCc1ccccc1)c1cc(-c2ccccc2)on1 | 5.64% (inactive) |
| O=C(Nc1ncc2ccccc2n1)c1cc(-c2ccccc2)on1 | 10.3% (inactive) |
| O=C(NCC1CCCCC1)c1cc(-c2ccccc2)on1 | 8.55% (inactive) |
| Cc1ccccc1CNC(=O)c1cc(-c2ccccc2)on1 | 3.19% (inactive) |
